Earlier results in EP0438554B1, “NITROGENOUS AMBRUTICINES, PROCESS FOR OBTAINING THEM AND THEIR USE” (Gesellschaft für Biotechnologische Forschung mbH (GBF), priority 1989, dated 1991).

Settings: in vitro; S.M. Ringel et al., J. of Antibiotics 30, 371 (1977)

CC[C@H]1O[C@@H](/C(C)=C/[C@H](C)/C=C/[C@H]2[C@@H](C)[C@@H]2/C=C/[C@@H]2O[C@H](CC(=O)O)C[C@H](O)[C@H]2O)CC=C1C [Ambruticin]
antibakterielle Wirkung: schwach antibakterielle
